According to patent publication US10787444B2, “Compounds for the modulation of myc activity” (Syros Pharmaceuticals, Inc., priority 2015, dated 2020):
Structures can show the parent of a compound that is named as a salt. Where two headings read alike, the source gives them in different places.

How the values were obtained:
[1] = molecular target: T1, c-Myc/Max/Ebox DNA (Homo sapiens, UniProt P01106); experiment: c-Myc/Max/Ebox DNA AlphaScreen Assay; type: binding; conditions: calculated IC50 class
T1 construct: his6 (cleaved yes)
Procedure, shortened: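 Compounds were preincubated with free c-Myc (20 nM), biotinylated single-Ebox DNA (10 nM) and Ni acceptor beads before his6-Max (5 nM) and streptavidin donor beads were added. Buffer was 50 mM HEPES pH 8.0, 150 mM NaCl, BSA, Tween20, glycogen and DTT, with DMSO ≤2%. After 2 h incubation, AlphaScreen signal was read at 680 nm excitation and 520–620 nm emission.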

[2] = tested on: human small lung cancer cell line H2171; experiment: Cell Viability Assay (ATPlite); type: cell-based; conditions: H2171 cells, three days, ATPlite, calculated IC50 class, read-out: H2171 Activity
Procedure, shortened: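 H2171 cells were plated at 20,000 cells/mL and dosed immediately by pin transfer with a 10-point dose series in DMSO. After three days at 37° C, ATPlite luminescence served as the viability readout.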

[3] = Homo sapiens, NCI-H2171, 72 h, Table 3, compounds of FIG. 2
[4] = Homo sapiens, NCI-H2171, 72 h, Table 2, compounds of FIG. 1

T1 sequence (P01106 whole entry): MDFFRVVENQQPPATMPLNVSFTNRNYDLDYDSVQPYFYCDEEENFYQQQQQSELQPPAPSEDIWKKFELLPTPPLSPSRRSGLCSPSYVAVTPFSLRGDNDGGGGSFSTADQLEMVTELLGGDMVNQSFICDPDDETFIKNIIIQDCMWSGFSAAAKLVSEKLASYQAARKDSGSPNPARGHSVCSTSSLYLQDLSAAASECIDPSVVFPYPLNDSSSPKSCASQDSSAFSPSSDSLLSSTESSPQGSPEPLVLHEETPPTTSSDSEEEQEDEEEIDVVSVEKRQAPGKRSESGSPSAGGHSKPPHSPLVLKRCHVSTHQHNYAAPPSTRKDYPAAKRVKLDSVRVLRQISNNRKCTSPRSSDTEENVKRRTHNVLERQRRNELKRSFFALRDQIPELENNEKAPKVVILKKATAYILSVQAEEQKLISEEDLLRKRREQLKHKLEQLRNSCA

| Structure (SMILES) | IC50 ([1]; Table 2, compounds of FIG. 1) [nM] | IC50 ([2]; Table 2, compounds of FIG. 1) [nM] | IC50 ([1]; Table 3, compounds of FIG. 2) [nM] | IC50 [2, 3] [nM] | IC50 [2, 4] [nM] |
| --- | --- | --- | --- | --- | --- |
| CC(=O)Nc1sc2c(c1-c1nc3c(C)cccc3s1)CCNC2 [Compound 225, N-(3-(4-methylbenzo[d]thiazol-2-yl)-4,5,6,7-tetrahydrothieno[2,3-c]pyridin-2-yl)acetamide] |  |  | 300 to 1000 | < 300 |  |
| CC(C)NCCC(=O)Nc1sc2c(c1-c1nc3cc(C(=O)Nc4cccnc4)ccc3s1)CCNC2 [Compound 510, 2-(2-(3-(Isopropylamino)propanamido)-4,5,6,7-tetrahydrothieno[2,3-c]pyridin-3-yl)-N-(pyridin-3-yl)benzo[d]thiazole-5-carboxamide] | 300 to 1000 |  |  |  | < 300 |
| COCCNCCC(=O)Nc1sc2c(c1-c1nc3cc(-c4cccnc4)ccc3s1)CC(C)NC2C (centres unmarked) [Compound 533, N-(5,7-Dimethyl-3-(5-(pyridin-3-yl)benzo[d]thiazol-2-yl)-4,5,6,7-tetrahydrothieno[2,3-c]pyridin-2-yl)-3-((2-methoxyethyl)amino)propanamide] | 1000 to 10000 |  |  |  | 300 to 1000 |
| C=Cc1ccc2sc(-c3c(NC(=O)CCNC(C)C)sc4c3CCNC4)nc2c1 [Compound 321, 3-(Isopropylamino)-N-(3-(5-vinylbenzo[d]thiazol-2-yl)-4,5,6,7-tetrahydrothieno[2,3-c]pyridin-2-yl)propanamide] | 300 to 1000 |  |  |  | < 300 |
| COCCNCCC(=O)Nc1sc2c(c1-c1nc3cc(-c4cccnc4)ccc3s1)CC(C)NC2C (single isomer, unassigned) [Compound 525, N-(5,7-Dimethyl-3-(5-(pyridin-3-yl)benzo[d]thiazol-2-yl)-4,5,6,7-tetrahydrothieno[2,3-c]pyridin-2-yl)-3-((2-methoxyethyl)amino)propanamide] | < 300 | < 300 |  |  |  |
| COCCNCCC(=O)Nc1sc2c(c1-c1nc3cc(F)ccc3s1)CC(C)NC2C (single isomer, unassigned) [Compound 545, N-(3-(5-Fluorobenzo[d]thiazol-2-yl)-5,7-dimethyl-4,5,6,7-tetrahydrothieno[2,3-c]pyridin-2-yl)-3-((2-methoxyethyl)amino)propanamide] | < 300 | < 300 |  |  |  |
| COCCN(CCOC)CCC(=O)Nc1sc2c(c1-c1nc3ccccc3s1)CCNC2 [Compound 309, N-(3-(benzo[d]thiazol-2-yl)-4,5,6,7-tetrahydrothieno[2,3-c]pyridin-2-yl)-3-(bis(2-methoxyethyl)amino)propanamide] | > 10000 |  |  |  | < 300 |
| Cc1ncsc1-c1ccc(CNC(=O)[C@@H]2C[C@@H](O)CN2C(=O)[C@@H](NC(=O)CCOCCOCCOCCOCCOCCOCCNCCC(=O)Nc2sc3c(c2-c2nc4ccccc4s2)CCNC3)C(C)(C)C)cc1 [Compound 591, N1-(3-(benzo[d]thiazol-2-yl)-4,5,6,7-tetrahydrothieno[2,3-c]pyridin-2-yl)-N25-((S)-1-((2S,4R)-4-hydroxy-2-((4-(4-methylthiazol-5-yl)benzyl)carbamoyl)pyrrolidin-1-yl)-3,3-dimethyl-1-oxobutan-2-yl)-7,10,13,16,19,22-hexaoxa-4-azapentacosanediamide] | > 10000 |  |  |  | < 300 |
| CC[C@H](C)NCCC(=O)Nc1sc2c(c1-c1nc3ccccc3s1)CC(C)NC2C (single isomer, unassigned) [Compound 624] | < 300 | < 300 |  |  |  |
| CC(C)NCCC(=O)Nc1sc2c(c1-c1nc3ccccc3s1)CC(C)NC2C (single isomer, unassigned) [Compound 196, N-(3-(benzo[d]thiazol-2-yl)-5,7-dimethyl-4,5,6,7-tetrahydrothieno[2,3-c]pyridin-2-yl)-3-(isopropylamino)propanamide] | 300 to 1000 |  |  |  | < 300 |
| CC(=O)Nc1sc2c(c1-c1nc3cc4c(cc3s1)OCO4)CCN(C(C)C)C2 [Compound 236, N-(3-([1,3]Dioxolo[4′,5′:4,5]benzo[1,2-d]thiazol-6-yl)-6-isopropyl-4,5,6,7-tetrahydrothieno[2,3-c]pyridin-2-yl)acetamide] |  |  | 300 to 1000 | 300 to 1000 |  |
| COCCNCCC(=O)Nc1sc2c(c1-c1nc3ccccc3s1)CC(C)NC2C (centres unmarked) [Compound 507, N-(3-(Benzo[d]thiazol-2-yl)-5,7-dimethyl-4,5,6,7-tetrahydrothieno[2,3-c]pyridin-2-yl)-3-((2-methoxyethyl)amino)propanamide] | 300 to 1000 | < 300 |  |  |  |
| COCCNCCC(=O)Nc1sc2c(c1-c1nc3c(OC)cccc3s1)CCNC2 [Compound 613, N-(3-(4-Methoxybenzo[d]thiazol-2-yl)-4,5,6,7-tetrahydrothieno[2,3-c]pyridin-2-yl)-3-((2-methoxyethyl)amino)propanamide dihydrochloride] | 1000 to 10000 |  |  |  | 300 to 1000 |
| CCC(C)NCCC(=O)Nc1sc2c(c1-c1nc3cc(-n4cnc(C)c4)ccc3s1)CCNC2 (centres unmarked) [compound 149] | < 300 |  |  |  | < 300 |
| CC(C)N1CCc2c(sc(NC(=O)CCN3C(=O)C=CC3=O)c2-c2nc3ccccc3s2)C1 [Compound 133, N-(3-(benzo[d]thiazol-2-yl)-6-isopropyl-4,5,6,7-tetrahydrothieno[2,3-c]pyridin-2-yl)-3-(2,5-dioxo-2,5-dihydro-1H-pyrrol-1-yl)propanamide] | > 10000 |  |  |  | 1000 to 10000 |
| CC[C@H](C)NCCC(=O)Nc1sc2c(c1-c1nc3ccccc3s1)CCN(C1CC(F)(F)C1)C2 [Compound 619, (S)—N-(3-(benzo[d]thiazol-2-yl)-6-(3,3-difluorocyclobutyl)-4,5,6,7-tetrahydrothieno[2,3-c]pyridin-2-yl)-3-(sec-butylamino)propanamide] | 1000 to 10000 |  |  |  | < 300 |

Now from value to molecule:

| IC50 ([1]; Table 2, compounds of FIG. 1) [nM] | IC50 ([2]; Table 2, compounds of FIG. 1) [nM] | IC50 ([1]; Table 3, compounds of FIG. 2) [nM] | IC50 [2, 3] [nM] | IC50 [2, 4] [nM] | Structure (SMILES) |
| --- | --- | --- | --- | --- | --- |
| < 300 | < 300 |  |  |  | CC(C)NCCC(=O)Nc1sc2c(c1-c1nc3ccccc3s1)CC(C)NC2C (single isomer, unassigned) [Compound 195, N-(3-(benzo[d]thiazol-2-yl)-5,7-dimethyl-4,5,6,7-tetrahydrothieno[2,3-c]pyridin-2-yl)-3-(isopropylamino)propanamide] |
| < 300 |  |  |  | < 300 | CCOC(=O)Cn1cc(-c2ccc3sc(-c4c(NC(=O)CCNCCOC)sc5c4CCNC5)nc3c2)cn1 [compound 445] |
| < 300 |  |  |  | < 300 | COCCNCCC(=O)Nc1sc2c(c1-c1nc3cc(F)ccc3s1)CCN[C@@H]2C [Compound 557] |
| < 300 |  |  |  | < 300 | COCCNCCC(=O)Nc1sc2c(c1-c1nc3cc(-c4ccc(C(=O)N5CCOCC5)cc4)ccc3s1)CCNC2 [compound 334] |
| < 300 |  |  |  | < 300 | CC[C@H](C)NCCC(=O)Nc1sc2c(c1-c1nc3cc(C(F)(F)F)ccc3s1)CC(C)NC2C (single isomer, unassigned) [Compound 584] |
| < 300 |  |  |  | < 300 | COCCNCCC(=O)Nc1sc2c(c1-c1nc3cc(C(F)(F)F)ccc3s1)CC(C)NC2 (single isomer, unassigned) [Compound 550, 3-((2-Methoxyethyl)amino)-N-(5-methyl-3-(5-(trifluoromethyl)benzo[d]thiazol-2-yl)-4,5,6,7-tetrahydrothieno[2,3-c]pyridin-2-yl)propanamide] |
| < 300 | 300 to 1000 |  |  |  | CCC(C)N(C)CCC(=O)Nc1sc2c(c1-c1nc3ccccc3s1)CCN(C(C)C)C2 (centres unmarked) [Compound 122] |
| < 300 |  |  |  | < 300 | COCCNCCC(=O)Nc1sc2c(c1-c1nc3cc(-n4cnc(C)c4)ccc3s1)CCNC2 [compound 180] |
| < 300 |  |  |  | < 300 | CCC(C)NCCC(=O)Nc1sc2c(c1-c1nc3cc(F)ccc3s1)CCNC2 (centres unmarked) [Compound 123, 3-(sec-butylamino)-N-(3-(5-fluorobenzo[d]thiazol-2-yl)-4,5,6,7-tetrahydrothieno[2,3-c]pyridin-2-yl) propanamide] |
| < 300 |  |  |  | < 300 | COCCNCCC(=O)Nc1sc2c(c1-c1nc3ccc(-c4cc[nH]n4)cc3s1)CCNC2 [compound 361] |
| < 300 |  |  |  | < 300 | CC[C@H](C)NCCC(=O)Nc1sc2c(c1-c1nc3cc(-c4ccncc4)ccc3s1)C[C@@H](C)NC2 [Compound 589, 3-(((S)-sec-butyl)amino)-N—((R)-5-methyl-3-(5(pyridin-4-yl)benzo[d]thiazol-2-yl)-4,5,6,7-tetrahydrothieno[2,3-c]pyridin-2-yl)propanamide] |
| < 300 |  |  |  | < 300 | COCCNCCC(=O)Nc1sc2c(c1-c1nc3cc(-c4ccncc4)ccc3s1)CCNC2 [compound 308] |
| < 300 |  |  |  | < 300 | COCCNCCC(=O)Nc1sc2c(c1-c1nc3c(CO)cccc3s1)CCNC2 [compound 598] |
| < 300 |  |  |  | < 300 | CC[C@@H](C)NCCC(=O)Nc1sc2c(c1-c1nc3ccccc3s1)CCN(C(C)C)C2 [Compound 140, (R)—N-(3-(benzo[d]thiazol-2-yl)-6-isopropyl-4,5,6,7-tetrahydrothieno[2,3-c]pyridin-2-yl)-3-(sec-butylamino)propanamide] |
| < 300 |  |  |  | < 300 | COCCNCCC(=O)Nc1sc2c(c1-c1nc3cc(-c4cnc(OC)nc4)ccc3s1)CCNC2 [compound 404] |
| < 300 |  |  |  | < 300 | COCCNCCC(=O)Nc1sc2c(c1-c1nc3cc(F)ccc3s1)C[C@H](C)NC2 [Compound 571] |
| < 300 |  |  |  | < 300 | CC(C)NCCC(=O)Nc1sc2c(c1-c1nc3c(Br)cccc3s1)CCNC2 [compound 516] |
| < 300 |  |  |  | < 300 | COCCNCCC(=O)Nc1sc2c(c1-c1nc3cc(-c4cnc(N)nc4)ccc3s1)CCNC2 [compound 345] |
